Source: the NIST ThermoML archive (doi:10.1021/je060219e)
“And” between values parts separate entries of the source, which are not always exact repeats. Equal entries are not always repeated.

Experiment: φn = volume fraction of the nth substance listed
Conditions: 101 kPa, Liquid

CCO [ethanol] + O
viscosity
Conditions	303.15 K	308.15 K	313.15 K	318.15 K	323.15 K
φ1 = 0.1	0.6791 mPa·s	0.6191 mPa·s	0.5909 mPa·s	0.5763 mPa·s	0.5305 mPa·s
φ1 = 0.2	0.9735 mPa·s	0.871 mPa·s	0.7442 mPa·s	0.6476 mPa·s	0.598 mPa·s
φ1 = 0.3	1.186 mPa·s	0.8816 mPa·s	0.8614 mPa·s	0.797 mPa·s and 0.79 mPa·s	0.698 mPa·s
φ1 = 0.4	1.254 mPa·s	1.147 mPa·s	0.9262 mPa·s	0.8844 mPa·s	0.7081 mPa·s
φ1 = 0.5	1.426 mPa·s	1.216 mPa·s	1.14 mPa·s	0.8776 mPa·s	0.825 mPa·s
